Assay results published in paper PMC9516332 (Frontiers in Oncology, 2022).
Like-named read-outs stand apart in the source and are kept apart here.

Test system: 134 cancer cell lines
Experiment: Cell viability assay (ATPlite, 72 hours), IC50 on cancer cell line panel

Q: How did the IC50 (Homo sapiens, MOLM-13, read-out: IC50 in cell proliferation assay, MOLM-13 cell line (FLT3 ITD)) turn out when O=C(Nc1cnn2ccc(N3CCC[C@@H]3c3cc(F)ccc3F)nc12)N1CC[C@H](O)C1 [larotrectinib] was run?
A: 12.6 µM

Q: What about the IC50 (Homo sapiens, MOLT-4, read-out: IC50 in cell proliferation assay, MOLT-4 cell line) of the same compound?
A: > 31.6 µM

Q: What about the IC50 (Homo sapiens, MV4-11, read-out: IC50 in cell proliferation assay, MV4-11 cell line (FLT3 ITD)) of the same compound?
A: 26.5 µM

Q: What about the IC50 (Homo sapiens, MeWo, read-out: IC50 in cell proliferation assay, MeWo cell line) of the same compound?
A: > 31.6 µM

Q: What about the IC50 (Homo sapiens, NCCIT, read-out: IC50 in cell proliferation assay, NCC-IT cell line) of the same compound?
A: > 31.6 µM

Q: And the IC50 (Homo sapiens, NCI-H82, read-out: IC50 in cell proliferation assay, cell line NCI-H82)?
A: > 31.6 µM

Q: What about the IC50 (Homo sapiens, NCI-H460, read-out: IC50 in cell proliferation assay, NCI-H460 cell line) of the same compound?
A: > 31.6 µM

Q: And the IC50 (Homo sapiens, NCI-H661, read-out: IC50 in cell proliferation assay, NCI-H661 cell line)?
A: > 31.6 µM

Q: And the IC50 (Homo sapiens, NCI-H716, read-out: IC50 in cell proliferation assay, cell line NCI-H716 (FGFR2-COL14A1))?
A: > 31.6 µM

Q: And the IC50 (Homo sapiens, NCI-H1650, read-out: IC50 in cell proliferation assay, NCI-H1650 cell line (EGFR exon19del))?
A: > 31.6 µM

Q: What about the IC50 (Homo sapiens, NCI-H1975, read-out: IC50 in cell proliferation assay, NCI-H1975 cell line (EGFR p.L858R + p.T790M)) of the same compound?
A: > 31.6 µM

Q: What about the IC50 (Homo sapiens, NCI-H2228, read-out: IC50 in cell proliferation assay, NCI-H2228 cell line (EML4-ALK)) of the same compound?
A: > 31.6 µM

Q: What about the IC50 (Homo sapiens, OVCAR-3, read-out: IC50 in cell proliferation assay, cell line OVCAR-3) of the same compound?
A: > 31.6 µM

Q: What about the IC50 (Homo sapiens, PFSK-1, read-out: IC50 in cell proliferation assay, cell line PFSK-1) of the same compound?
A: > 31.6 µM

Q: And the IC50 (Homo sapiens, RL95-2, read-out: IC50 in cell proliferation assay, cell line RL95-2 (EGFR p.A289V))?
A: > 31.6 µM

Q: And the IC50 (Homo sapiens, RPMI-7951, read-out: IC50 in cell proliferation assay, cell line RPMI-7951 (BRAF p.V600E))?
A: > 31.6 µM

Q: And the IC50 (Homo sapiens, RS4-11, read-out: IC50 in cell proliferation assay, cell line RS4;11)?
A: > 31.6 µM

Q: What about the IC50 (Homo sapiens, Rec1, read-out: IC50 in cell proliferation assay, cell line REC-1) of the same compound?
A: > 31.6 µM

Q: And the IC50 (Homo sapiens, SHP77, read-out: IC50 in cell proliferation assay, cell line SHP-77)?
A: > 31.6 µM

Q: And the IC50 (Homo sapiens, SK-BR-3, read-out: IC50 in cell proliferation assay, cell line SK-BR-3 (ERBB2 amplification))?
A: > 31.6 µM

Q: And the IC50 (Homo sapiens, SK-N-AS, read-out: IC50 in cell proliferation assay, cell line SK-N-AS)?
A: > 31.6 µM

Q: And the IC50 (Homo sapiens, SK-N-FI, read-out: IC50 in cell proliferation assay, cell line SK-N-FI)?
A: > 31.6 µM

Q: And the IC50 (Homo sapiens, SK-N-MC, read-out: IC50 in cell proliferation assay, cell line SK-N-MC)?
A: > 31.6 µM

Q: What about the IC50 (Homo sapiens, SK-N-SH, read-out: IC50 in cell proliferation assay, cell line SK-N-SH (ALK p.F1174L)) of the same compound?
A: > 31.6 µM

Q: And the IC50 (Homo sapiens, SNU-5, read-out: IC50 in cell proliferation assay, cell line SNU-5 (MET amplification))?
A: > 31.6 µM

Q: And the IC50 (Homo sapiens, SNU-16, read-out: IC50 in cell proliferation assay, cell line SNU-16 (FGFR2 amplification))?
A: > 31.6 µM

Q: And the IC50 (Homo sapiens, SNU-C2B, read-out: IC50 in cell proliferation assay, cell line SNU-C2B (EGFR p.R165Q))?
A: > 31.6 µM

Q: What about the IC50 (Homo sapiens, SU-DHL-1, read-out: IC50 in cell proliferation assay, cell line SU-DHL-1 (NPM1-ALK)) of the same compound?
A: > 31.6 µM

Q: And the IC50 (Homo sapiens, SU-DHL-6, read-out: IC50 in cell proliferation assay, cell line SU-DHL-6)?
A: > 31.6 µM

Q: And the IC50 (Homo sapiens, SUP-T1, read-out: IC50 in cell proliferation assay, cell line SUP-T1)?
A: > 31.6 µM

Q: And the IC50 (Homo sapiens, SW48, read-out: IC50 in cell proliferation assay, cell line SW48 (EGFR p.G719S))?
A: > 31.6 µM

Q: And the IC50 (Homo sapiens, SW480, read-out: IC50 in cell proliferation assay, cell line SW480)?
A: > 31.6 µM

Q: What about the IC50 (Homo sapiens, SW626, read-out: IC50 in cell proliferation assay, cell line SW626) of the same compound?
A: > 31.6 µM

Q: And the IC50 (Homo sapiens, SW780, read-out: IC50 in cell proliferation assay, cell line SW780 (FGFR3-BAIAP2L1))?
A: > 31.6 µM

Q: What about the IC50 (Homo sapiens, SW837, read-out: IC50 in cell proliferation assay, cell line SW837) of the same compound?
A: > 31.6 µM

Q: What about the IC50 (Homo sapiens, SW872, read-out: IC50 in cell proliferation assay, cell line SW872 (BRAF p.V600E)) of the same compound?
A: > 31.6 µM

Q: And the IC50 (Homo sapiens, SW900, read-out: IC50 in cell proliferation assay, cell line SW900)?
A: > 31.6 µM

Q: And the IC50 (Homo sapiens, SW948, read-out: IC50 in cell proliferation assay, cell line SW948)?
A: > 31.6 µM

Q: And the IC50 (Homo sapiens, SW982, read-out: IC50 in cell proliferation assay, cell line SW982 (BRAF p.V600E))?
A: > 31.6 µM

Q: What about the IC50 (Homo sapiens, SW-620, read-out: IC50 in cell proliferation assay, cell line SW620) of the same compound?
A: > 31.6 µM

Q: What about the IC50 (Homo sapiens, T98G, read-out: IC50 in cell proliferation assay, cell line T98G) of the same compound?
A: > 31.6 µM

Q: What about the IC50 (Homo sapiens, TCC-SUP, read-out: IC50 in cell proliferation assay, cell line TCCSUP) of the same compound?
A: > 31.6 µM

Q: What about the IC50 (Homo sapiens, THP-1, read-out: IC50 in cell proliferation assay, cell line THP-1) of the same compound?
A: > 31.6 µM

Q: And the IC50 (Homo sapiens, U2OS, read-out: IC50 in cell proliferation assay, cell line U2OS)?
A: > 31.6 µM

Q: What about the IC50 (Homo sapiens, U-87 MG, read-out: IC50 in cell proliferation assay, cell line U-87MG ATCC) of the same compound?
A: > 31.6 µM

Q: What about the IC50 (Homo sapiens, U-118-MG, read-out: IC50 in cell proliferation assay, cell line U-118MG) of the same compound?
A: > 31.6 µM

Q: What about the IC50 (Homo sapiens, UMUC3, read-out: IC50 in cell proliferation assay, cell line UM-UC-3) of the same compound?
A: > 31.6 µM

Q: And the IC50 (Hs766T, read-out: IC50 in cell proliferation assay, Hs 766T cell line)?
A: > 31.6 µM

Q: What about the IC50 (L-82, read-out: IC50 in cell proliferation assay, L-82 cell line (NPM1-ALK)) of the same compound?
A: > 31.6 µM

Q: What about the IC50 (Rh30, read-out: IC50 in cell proliferation assay, cell line Rh30) of the same compound?
A: > 31.6 µM

Q: And the IC50 (read-out: IC50 in cell proliferation assay, 11-18 cell line (EGFR p.L858R))?
A: > 31.6 µM

Q: What about the IC50 (read-out: IC50 in cell proliferation assay, Hs 852.T cell line) of the same compound?
A: > 31.6 µM

Q: What about the IC50 (read-out: IC50 in cell proliferation assay, JAR cell line) of the same compound?
A: > 31.6 µM

Q: And the IC50 (read-out: IC50 in cell proliferation assay, cell line 5637)?
A: > 31.6 µM

Q: What about the IC50 (read-out: IC50 in cell proliferation assay, cell line A-388) of the same compound?
A: > 31.6 µM

Q: And the IC50 (read-out: IC50 in cell proliferation assay, cell line DB)?
A: > 31.6 µM

Q: And the IC50 (read-out: IC50 in cell proliferation assay, cell line DEL (NPM1-ALK))?
A: > 31.6 µM

Q: What about the IC50 (read-out: IC50 in cell proliferation assay, cell line ES-2 (BRAF p.V600E)) of the same compound?
A: > 31.6 µM

Q: And the IC50 (read-out: IC50 in cell proliferation assay, cell line PA-1)?
A: > 31.6 µM

Q: And the IC50 (read-out: IC50 in cell proliferation assay, cell line PC-3)?
A: > 31.6 µM

Q: And the IC50 (read-out: IC50 in cell proliferation assay, cell line RD)?
A: > 31.6 µM

Q: What about the IC50 (read-out: IC50 in cell proliferation assay, cell line RKO (BRAF p.V600E)) of the same compound?
A: > 31.6 µM

Q: What about the IC50 (read-out: IC50 in cell proliferation assay, cell line RL) of the same compound?
A: > 31.6 µM

Q: What about the IC50 (read-out: IC50 in cell proliferation assay, cell line RT-4 (FGFR3-TACC3)) of the same compound?
A: > 31.6 µM

Q: What about the IC50 (read-out: IC50 in cell proliferation assay, cell line SR (NPM1-ALK)) of the same compound?
A: > 31.6 µM

Q: What about the IC50 (read-out: IC50 in cell proliferation assay, cell line T24) of the same compound?
A: > 31.6 µM

Q: And the IC50 (read-out: IC50 in cell proliferation assay, cell line TT (RET p.C634W))?
A: > 31.6 µM

Q: What about the IC50 (read-out: IC50 in cell proliferation assay, cell line VA-ES-BJ) of the same compound?
A: > 31.6 µM
